Measurements as given in ChEMBL document CHEMBL1806458, “The design, synthesis and structure-activity relationships of novel isoindoline-based histone deacetylase inhibitors” (Bioorg Med Chem Lett, 2011).
≈ marks a conversion by molar mass, not a printed value.

How the values were obtained:
Histone deacetylase 1 = Histone deacetylase 1 (Homo sapiens, UniProt Q13547)
Description: Inhibition of purified recombinant HDAC1

[1] = target: T1, Voltage-gated inwardly rectifying potassium channel KCNH2 (Homo sapiens, UniProt Q12809); experiment: Inhibition of human ERG by automated patch clamp assay
[2] = Thermodynamic solubility of the compound at pH 6.8; assay type: physicochemical; conditions: buffer; for solubility thermodynamic: read-out: Therm_solubility
HCT-116 = experiment: cells; conditions: Homo sapiens
Description: Antiproliferative activity against human HCT116 cells

[3] = Half life in rat liver microsomes; assay type: ADME, Microsome
[4] = Half life in human liver microsomes; assay type: ADME, Microsome
hERG (KCNH2) = conditions: human
Cytochrome P450 3A4 = Cytochrome P450 3A4 (Homo sapiens, UniProt P08684)
[5] = target: T1, Voltage-gated inwardly rectifying potassium channel KCNH2; experiment: Binding affinity to human ERG by radioligand binding assay

T1 sequence (Q12809 whole entry): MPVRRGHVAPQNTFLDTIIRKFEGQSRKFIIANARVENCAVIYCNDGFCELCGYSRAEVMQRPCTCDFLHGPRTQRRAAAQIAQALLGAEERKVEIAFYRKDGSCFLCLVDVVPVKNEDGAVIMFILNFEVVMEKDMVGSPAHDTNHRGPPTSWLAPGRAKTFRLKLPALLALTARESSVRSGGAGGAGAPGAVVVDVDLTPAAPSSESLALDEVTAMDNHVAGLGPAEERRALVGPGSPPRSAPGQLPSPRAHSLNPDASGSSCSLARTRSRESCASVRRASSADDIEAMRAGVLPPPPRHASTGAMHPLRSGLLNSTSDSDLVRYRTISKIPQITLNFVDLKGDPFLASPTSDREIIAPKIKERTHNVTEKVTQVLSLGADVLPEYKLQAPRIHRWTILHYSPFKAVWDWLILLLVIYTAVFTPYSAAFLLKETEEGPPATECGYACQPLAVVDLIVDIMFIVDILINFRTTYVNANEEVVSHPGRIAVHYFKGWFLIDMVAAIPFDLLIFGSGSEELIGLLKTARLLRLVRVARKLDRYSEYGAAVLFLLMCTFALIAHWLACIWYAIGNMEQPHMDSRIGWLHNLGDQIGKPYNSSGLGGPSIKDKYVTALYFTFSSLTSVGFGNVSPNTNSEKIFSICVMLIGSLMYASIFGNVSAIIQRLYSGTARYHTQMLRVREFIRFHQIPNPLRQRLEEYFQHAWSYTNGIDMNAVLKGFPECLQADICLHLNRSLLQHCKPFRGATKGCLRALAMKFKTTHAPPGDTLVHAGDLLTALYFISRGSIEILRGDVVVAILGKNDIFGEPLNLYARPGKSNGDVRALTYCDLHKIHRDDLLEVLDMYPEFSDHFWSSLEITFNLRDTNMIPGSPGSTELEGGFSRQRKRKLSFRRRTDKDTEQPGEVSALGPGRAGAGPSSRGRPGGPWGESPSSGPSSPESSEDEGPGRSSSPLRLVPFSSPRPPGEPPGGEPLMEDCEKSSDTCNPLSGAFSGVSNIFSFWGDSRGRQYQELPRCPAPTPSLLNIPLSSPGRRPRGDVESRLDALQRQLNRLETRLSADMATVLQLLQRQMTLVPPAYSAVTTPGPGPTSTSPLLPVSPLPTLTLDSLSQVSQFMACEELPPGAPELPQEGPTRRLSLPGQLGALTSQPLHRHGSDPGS
Cytochrome P450 3A4, sequence (P08684 whole entry): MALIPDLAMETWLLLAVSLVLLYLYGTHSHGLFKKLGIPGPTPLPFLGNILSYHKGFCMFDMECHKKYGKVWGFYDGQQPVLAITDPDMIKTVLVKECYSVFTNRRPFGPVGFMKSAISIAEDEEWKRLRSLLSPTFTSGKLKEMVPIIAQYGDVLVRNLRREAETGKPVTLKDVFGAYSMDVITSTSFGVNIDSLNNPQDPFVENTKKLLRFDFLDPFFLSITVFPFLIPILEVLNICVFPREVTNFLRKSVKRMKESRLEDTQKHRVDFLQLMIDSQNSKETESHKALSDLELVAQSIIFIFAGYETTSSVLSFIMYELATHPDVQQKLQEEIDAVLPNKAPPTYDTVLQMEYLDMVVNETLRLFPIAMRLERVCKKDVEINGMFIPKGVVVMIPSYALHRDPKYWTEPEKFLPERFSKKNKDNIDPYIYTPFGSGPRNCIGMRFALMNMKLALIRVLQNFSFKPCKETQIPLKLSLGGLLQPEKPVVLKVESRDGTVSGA
Histone deacetylase 1, sequence (Q13547 whole entry): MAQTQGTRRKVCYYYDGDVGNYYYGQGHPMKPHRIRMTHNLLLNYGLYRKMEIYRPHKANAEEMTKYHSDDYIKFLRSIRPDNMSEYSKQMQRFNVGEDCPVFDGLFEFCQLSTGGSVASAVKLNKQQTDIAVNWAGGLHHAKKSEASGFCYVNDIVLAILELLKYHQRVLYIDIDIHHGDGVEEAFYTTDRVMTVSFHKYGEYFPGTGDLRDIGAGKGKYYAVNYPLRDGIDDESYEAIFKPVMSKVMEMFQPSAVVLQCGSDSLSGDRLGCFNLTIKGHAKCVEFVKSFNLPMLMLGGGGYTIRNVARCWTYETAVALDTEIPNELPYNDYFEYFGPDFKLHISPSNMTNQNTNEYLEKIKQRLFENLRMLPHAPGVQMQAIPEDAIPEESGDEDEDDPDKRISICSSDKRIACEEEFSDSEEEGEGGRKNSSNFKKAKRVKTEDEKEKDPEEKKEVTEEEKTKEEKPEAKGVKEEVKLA

Compound: COc1cccc(S(=O)(=O)N2Cc3ccc(/C=C/C(=O)NO)cc3C2)c1
- IC50 (Histone deacetylase 1): 92 nM
- IC50 [1]: > 30000 nM
- Therm_solubility [2]: soluble
- IC50 (HCT-116): 1130 nM

Compound: O=C(/C=C/c1ccc2c(c1)CN(C(=O)C1CCCC1)C2)NO
- IC50 (Histone deacetylase 1): 350 nM
- IC50 [1]: > 30000 nM

Compound: Cn1cnc(S(=O)(=O)N2Cc3ccc(/C=C/C(=O)NO)cc3C2)c1
- IC50 (Histone deacetylase 1): 140 nM
- IC50 [1]: > 30000 nM
- Therm_solubility [2]: soluble
- IC50 (HCT-116): 8840 nM

Compound: Cc1ccc(S(=O)(=O)N2Cc3ccc(/C=C/C(=O)NO)cc3C2)cc1
- IC50 (Histone deacetylase 1): 47 nM
- half-life [3]: 4.1 min
- half-life [4]: 11 min
- IC50 [1]: > 30000 nM
- solubility thermodynamic [2]: 20 µM (≈ 7.17 µg/mL)
- IC50 (HCT-116): 1580 nM

Compound: CS(=O)(=O)N1Cc2ccc(/C=C/C(=O)NO)cc2C1
- IC50 (Histone deacetylase 1): 630 nM
- IC50 [1]: > 30000 nM
- Therm_solubility [2]: soluble

Compound: O=C(/C=C/c1ccc2c(c1)CN(C(=O)C1CCCCC1)C2)NO
- IC50 (Histone deacetylase 1): 390 nM

Compound: CCCCS(=O)(=O)N1Cc2ccc(/C=C/C(=O)NO)cc2C1
- IC50 (Histone deacetylase 1): 150 nM
- Therm_solubility [2]: soluble
- IC50 (HCT-116): 3210 nM

Compound: Cc1[nH]c2ccccc2c1CCN1Cc2ccc(/C=C/C(=O)NO)cc2C1
- IC50 (Histone deacetylase 1): 26 nM
- half-life [3]: 2 min
- half-life [4]: 30 min
- selectivity ratio (hERG (KCNH2); hct-116): 114
- IC50 [1]: 4800 nM
- IC50 (Cytochrome P450 3A4): > 10000 nM
- solubility thermodynamic [2]: 263 µM (≈ 95.1 µg/mL)
- IC50 (HCT-116): 42 nM

Compound: O=C(/C=C/c1ccc2c(c1)CN(S(=O)(=O)c1cccnc1)C2)NO
- IC50 (Histone deacetylase 1): 150 nM
- IC50 [1]: > 30000 nM
- Therm_solubility [2]: soluble
- IC50 (HCT-116): 4260 nM

Compound: O=C(/C=C/c1ccc2c(c1)CN(CCc1c[nH]c3ccccc13)C2)NO
- IC50 (Histone deacetylase 1): 16 nM
- half-life [3]: 5 min
- IC50 (Cytochrome P450 3A4): > 10000 nM
- solubility thermodynamic [2]: 490 µM (≈ 170 µg/mL)
- IC50 (HCT-116): 220 nM

Compound: O=C(/C=C/c1ccc2c(c1)CN(C(=O)c1cccc(C(F)(F)F)c1)C2)NO
- IC50 (Histone deacetylase 1): 200 nM
- IC50 (HCT-116): 5820 nM

Compound: O=C(/C=C/c1ccc2c(c1)CN(S(=O)(=O)c1ccncc1)C2)NO
- IC50 (Histone deacetylase 1): 480 nM
- IC50 [1]: > 30000 nM
- Therm_solubility [2]: soluble

Compound: Cc1cccc(S(=O)(=O)N2Cc3ccc(/C=C/C(=O)NO)cc3C2)c1
- IC50 (Histone deacetylase 1): 62 nM
- half-life [3]: 7 min
- half-life [4]: 15 min
- IC50 [1]: > 30000 nM
- solubility thermodynamic [2]: 20 µM (≈ 7.17 µg/mL)
- IC50 (HCT-116): 1420 nM

Compound: O=C(/C=C/c1ccc2c(c1)CN(S(=O)(=O)c1cccc(C(F)(F)F)c1)C2)NO
- IC50 (Histone deacetylase 1): 160 nM
- IC50 [1]: > 30000 nM
- Therm_solubility [2]: soluble
- IC50 (HCT-116): 2050 nM

Compound: Cc1ccccc1S(=O)(=O)N1Cc2ccc(/C=C/C(=O)NO)cc2C1
- IC50 (Histone deacetylase 1): 130 nM
- Therm_solubility [2]: soluble
- IC50 (HCT-116): 2230 nM

Compound: Cc1noc(-c2ccccc2)c1CCN1Cc2ccc(/C=C/C(=O)NO)cc2C1
- IC50 (Histone deacetylase 1): 170 nM
- half-life [3]: 6 min
- half-life [4]: 17 min
- solubility thermodynamic [2]: 490 µM (≈ 191 µg/mL)
- IC50 (HCT-116): 2200 nM

Compound: O=C(/C=C/c1ccc2c(c1)CN(C(=O)Cc1ccccc1)C2)NO
- IC50 (Histone deacetylase 1): 130 nM
- IC50 (Cytochrome P450 3A4): > 50000 nM
- Therm_solubility [2]: soluble
- IC50 (HCT-116): 830 nM

Compound: O=C(/C=C/c1ccc2c(c1)CN(S(=O)(=O)c1ccc(C(F)(F)F)cc1)C2)NO
- IC50 (Histone deacetylase 1): 160 nM
- Therm_solubility [2]: soluble
- IC50 (HCT-116): 2430 nM

Compound: O=C(/C=C/c1ccc2c(c1)CN(S(=O)(=O)c1cccs1)C2)NO
- IC50 (Histone deacetylase 1): 89 nM
- IC50 (Cytochrome P450 3A4): > 50000 nM
- solubility thermodynamic [2]: 34 µM (≈ 11.9 µg/mL)
- IC50 (HCT-116): 800 nM

Compound: Cc1[nH]c2ccccc2c1CC(=O)N1Cc2ccc(/C=C/C(=O)NO)cc2C1
- IC50 (Histone deacetylase 1): 20 nM
- half-life [3]: 15 min
- half-life [4]: 173 min
- selectivity ratio (hERG (KCNH2); hERG assay and HCT116 cells): > 158
- IC50 [1]: > 30000 nM
- solubility thermodynamic [2]: < 20 µM
- IC50 [5]: > 30000 nM
- IC50 (HCT-116): 190 nM

Compound: O=C(/C=C/c1ccc2c(c1)CN(Cc1ccccc1)C2)NO
- IC50 (Histone deacetylase 1): 200 nM
- half-life [3]: 29 min
- half-life [4]: 50 min
- IC50 [1]: 27500 nM
- IC50 (HCT-116): 1040 nM

Compound: O=C(/C=C/c1ccc2c(c1)CN(S(=O)(=O)C1CC1)C2)NO
- IC50 (Histone deacetylase 1): 790 nM
- IC50 [1]: > 30000 nM
- Therm_solubility [2]: soluble

Compound: COc1ccc(S(=O)(=O)N2Cc3ccc(/C=C/C(=O)NO)cc3C2)cc1
- IC50 (Histone deacetylase 1): 35 nM
- half-life [3]: 8.5 min
- half-life [4]: 19 min
- IC50 [1]: > 30000 nM
- IC50 (Cytochrome P450 3A4): > 50000 nM
- solubility thermodynamic [2]: < 5 µM
- IC50 (HCT-116): 930 nM

Compound: O=C(/C=C/c1ccc2c(c1)CN(CCc1cnn3ccccc13)C2)NO
- IC50 (Histone deacetylase 1): 78 nM
- half-life [3]: 9 min
- half-life [4]: 112 min
- selectivity ratio (hERG (KCNH2); hct-116): 7.4
- IC50 [1]: 5200 nM
- IC50 (Cytochrome P450 3A4): > 50000 nM
- solubility thermodynamic [2]: 765 µM (≈ 267 µg/mL)
- IC50 (HCT-116): 530 nM

Compound: CC(C)(C)C(=O)N1Cc2ccc(/C=C/C(=O)NO)cc2C1
- IC50 (Histone deacetylase 1): 420 nM
- IC50 [1]: > 30000 nM

Compound: O=C(/C=C/c1ccc(CN(CCO)CCc2c[nH]c3ccccc23)cc1)NO [DACINOSTAT]
- half-life [3]: 2.3 min
- half-life [4]: 12 min
- solubility thermodynamic [2]: 97 µM (≈ 36.8 µg/mL)

Compound: CC(C)(C)OC(=O)N1Cc2ccc(/C=C/C(=O)NO)cc2C1
- IC50 (Histone deacetylase 1): 520 nM
- half-life [3]: 14 min
- half-life [4]: 131 min
- IC50 [1]: > 30000 nM
- solubility thermodynamic [2]: 99 µM (≈ 30.1 µg/mL)

Compound: Nc1ccccc1NC(=O)c1ccc(CNc2nccc(-c3cccnc3)n2)cc1 [MOCETINOSTAT]
- half-life [3]: 31.3 min
- half-life [4]: 37.8 min
- solubility thermodynamic [2]: 33 µM (≈ 13.1 µg/mL)

Compound: O=C(/C=C/c1ccc2c(c1)CN(S(=O)(=O)Cc1ccccc1)C2)NO
- IC50 (Histone deacetylase 1): 120 nM
- IC50 [1]: > 30000 nM
- Therm_solubility [2]: soluble
- IC50 (HCT-116): 1120 nM

Compound: Nc1ccccc1NC(=O)c1ccc(CNC(=O)OCc2cccnc2)cc1 [ENTINOSTAT]
- half-life [3]: 405 min
- half-life [4]: 405 min
- IC50 (Cytochrome P450 3A4): 730 nM
- solubility thermodynamic [2]: 401 µM (≈ 151 µg/mL)

Compound: O=C(/C=C/c1ccc2c(c1)CN(S(=O)(=O)c1ccccc1)C2)NO
- IC50 (Histone deacetylase 1): 190 nM
- IC50 [1]: > 30000 nM
- Therm_solubility [2]: soluble
- IC50 (HCT-116): 3420 nM

Compound: O=C(CCCCCCC(=O)Nc1ccccc1)NO [VORINOSTAT]
- half-life [3]: 114 min
- half-life [4]: 405 min
- Therm_solubility [2]: 19 µM

Compound: O=C(/C=C/c1ccc2c(c1)CN(C(=O)C1CC1)C2)NO
- IC50 (Histone deacetylase 1): 420 nM
- IC50 [1]: > 30000 nM

Compound: O=C(/C=C/c1ccc2c(c1)CN(C(=O)c1cccnc1)C2)NO
- IC50 (Histone deacetylase 1): 380 nM
- IC50 [1]: > 30000 nM
- Therm_solubility [2]: soluble

Compound: O=C(/C=C/c1cccc(S(=O)(=O)Nc2ccccc2)c1)NO [BELINOSTAT]
- half-life [3]: 18 min
- half-life [4]: 405 min
- solubility thermodynamic [2]: 734 µM (≈ 234 µg/mL)

Compound: O=C(/C=C/c1ccc2c(c1)CN(CCC1CCCCC1)C2)NO
- IC50 (Histone deacetylase 1): 100 nM
- IC50 (HCT-116): 900 nM
